Source: ChEMBL document CHEMBL4376820, “Homodimeric Tobramycin Adjuvant Repurposes Novobiocin as an Effective Antibacterial Agent against Gram-Negative Bacteria” (J Med Chem, 2019)
Active and inactive are the calls of the source. No cut-off for these calls is given here.

Key:
[1] = test system: Pseudomonas aeruginosa; assay: Synergistic antibacterial activity against wild type Pseudomonas aeruginosa PAO1 assessed as potentiation of levofloxacin-induced antibacterial effect incubated for 18 hrs by checkerboard assay; type: functional, organism-based
[2] = test system: Pseudomonas aeruginosa; assay: Synergistic antibacterial activity against wild type Pseudomonas aeruginosa PAO1 assessed as potentiation of doxycycline-induced antibacterial effect incubated for 18 hrs by checkerboard assay relative to doxycycline alone; type: functional
[3] = test system: Pseudomonas aeruginosa; assay: Synergistic antibacterial activity against wild type Pseudomonas aeruginosa PAO1 assessed as potentiation of piperacillin-induced antibacterial effect incubated for 18 hrs by checkerboard assay relative to piperacillin alone; type: functional
[4] = test system: Erythrocyte; assay: Hemolytic activity against porcine erythrocytes assessed as hemoglobin release at 1024 ug/ml incubated for 1 hr by microplate reader analysis; type: ADME, cell-based, Sus scrofa; details: pig
[5] = test system: Pseudomonas aeruginosa; assay: Synergistic antibacterial activity against wild type Pseudomonas aeruginosa PAO1 assessed as potentiation of novobiocin-induced antibacterial effect incubated for 18 hrs by checkerboard assay relative to novobiocin alone; type: functional
[6] = test system: Pseudomonas aeruginosa; assay: Synergistic antibacterial activity against wild type Pseudomonas aeruginosa PAO1 assessed as potentiation of ciprofloxacin-induced antibacterial effect incubated for 18 hrs by checkerboard assay; type: functional, organism-based
[7] = test system: Pseudomonas aeruginosa; assay: Synergistic antibacterial activity against wild type Pseudomonas aeruginosa PAO1 assessed as potentiation of linezolid-induced antibacterial effect incubated for 18 hrs by checkerboard assay relative to linezolid alone; type: functional
[8] = test system: Pseudomonas aeruginosa; assay: Synergistic antibacterial activity against wild type Pseudomonas aeruginosa PAO1 assessed as potentiation of colistin-induced antibacterial effect at <=7.1 uM incubated for 18 hrs by checkerboard assay; type: functional, organism-based
[9] = test system: Pseudomonas aeruginosa; assay: Synergistic antibacterial activity against wild type Pseudomonas aeruginosa PAO1 assessed as potentiation of moxifloxacin-induced antibacterial effect incubated for 18 hrs by checkerboard assay relative to moxifloxacin alone; type: functional
[10] = test system: HepG2; assay: Cytotoxicity against human HepG2 cells at 50 uM incubated for 48 hrs by PrestoBlue dye based fluorescence assay; type: cell-based; details: hepg2, 48 h
[11] = test system: Pseudomonas aeruginosa; assay: Synergistic antibacterial activity against wild type Pseudomonas aeruginosa PAO1 assessed as potentiation of tobramycin-induced antibacterial effect at <= 7.1 uM incubated for 18 hrs by checkerboard assay; type: functional, organism-based
[12] = test system: Pseudomonas aeruginosa; assay: Synergistic antibacterial activity against wild type Pseudomonas aeruginosa PAO1 assessed as potentiation of cefotaxime-induced antibacterial effect incubated for 18 hrs by checkerboard assay; type: functional, organism-based
[13] = test system: Pseudomonas aeruginosa; assay: Synergistic antibacterial activity against wild type Pseudomonas aeruginosa PAO1 assessed as potentiation of ceftazidime-induced antibacterial effect incubated for 18 hrs by checkerboard assay; type: functional, organism-based
[14] = Toxicity in Galleria mellonella larvae assessed as survivability at 200 mg/kg measured every 6 hrs for 72 hrs; type: organism-based; details: in vivo
[15] = test system: Pseudomonas aeruginosa; assay: Synergistic antibacterial activity against wild type Pseudomonas aeruginosa PAO1 assessed as potentiation of cefotaxime-induced antibacterial effect incubated for 18 hrs by checkerboard assay relative to cefotaxime alone; type: functional
[16] = test system: Pseudomonas aeruginosa; assay: Synergistic antibacterial activity against wild type Pseudomonas aeruginosa PAO1 assessed as potentiation of meropenem-induced antibacterial effect incubated for 18 hrs by checkerboard assay; type: functional, organism-based
[17] = test system: Pseudomonas aeruginosa; assay: Synergistic antibacterial activity against wild type Pseudomonas aeruginosa PAO1 assessed as potentiation of meropenem-induced antibacterial effect incubated for 18 hrs by checkerboard assay relative to meropenem alone; type: functional
[18] = test system: Pseudomonas aeruginosa; assay: Synergistic antibacterial activity against wild type Pseudomonas aeruginosa PAO1 assessed as potentiation of ciprofloxacin-induced antibacterial effect incubated for 18 hrs by checkerboard assay relative to ciprofloxacin alone; type: functional
[19] = test system: Pseudomonas aeruginosa; assay: Synergistic antibacterial activity against wild type Pseudomonas aeruginosa PAO1 assessed as potentiation of clindamycin-induced antibacterial effect incubated for 18 hrs by checkerboard assay relative to clindamycin alone; type: functional
[20] = test system: Pseudomonas aeruginosa; assay: Antibacterial activity against wild type Pseudomonas aeruginosa PAO1 assessed as fractional inhibitory concentration index incubated for 18 hrs in presence of tobramycin by checkerboard assay; type: functional
[21] = test system: HEK293; assay: Cytotoxicity against human HEK293 cells at 50 uM incubated for 48 hrs by PrestoBlue dye based fluorescence assay; type: cell-based; details: hek293, 48 h
[22] = test system: Pseudomonas aeruginosa; assay: Synergistic antibacterial activity against wild type Pseudomonas aeruginosa PAO1 assessed as potentiation of fosfomycin-induced antibacterial effect incubated for 18 hrs by checkerboard assay; type: functional, organism-based
[23] = test system: Pseudomonas aeruginosa; assay: Synergistic antibacterial activity against wild type Pseudomonas aeruginosa PAO1 assessed as potentiation of chloramphenicol-induced antibacterial effect incubated for 18 hrs by checkerboard assay; type: functional, organism-based
[24] = test system: Pseudomonas aeruginosa; assay: Synergistic antibacterial activity against wild type Pseudomonas aeruginosa PAO1 assessed as potentiation of linezolid-induced antibacterial effect incubated for 18 hrs by checkerboard assay; type: functional, organism-based
[25] = test system: Pseudomonas aeruginosa; assay: Synergistic antibacterial activity against wild type Pseudomonas aeruginosa PAO1 assessed as potentiation of clindamycin-induced antibacterial effect incubated for 18 hrs by checkerboard assay; type: functional, organism-based
[26] = test system: Pseudomonas aeruginosa; assay: Synergistic antibacterial activity against wild type Pseudomonas aeruginosa PAO1 assessed as potentiation of chloramphenicol-induced antibacterial effect incubated for 18 hrs by checkerboard assay relative to chloramphenicol alone; type: functional
[27] = test system: Pseudomonas aeruginosa; assay: Synergistic antibacterial activity against wild type Pseudomonas aeruginosa PAO1 assessed as potentiation of ceftazidime-induced antibacterial effect incubated for 18 hrs by checkerboard assay relative to ceftazidime alone; type: functional
[28] = test system: Pseudomonas aeruginosa; assay: Synergistic antibacterial activity against wild type Pseudomonas aeruginosa PAO1 assessed as potentiation of fosfomycin-induced antibacterial effect incubated for 18 hrs by checkerboard assay relative to fosfomycin alone; type: functional
[29] = test system: Pseudomonas aeruginosa; assay: Synergistic antibacterial activity against wild type Pseudomonas aeruginosa PAO1 assessed as potentiation of rifampicin-induced antibacterial effect incubated for 18 hrs by checkerboard assay; type: functional, organism-based
[30] = test system: Pseudomonas aeruginosa; assay: Synergistic antibacterial activity against wild type Pseudomonas aeruginosa PAO1 assessed as potentiation of doxycycline-induced antibacterial effect incubated for 18 hrs by checkerboard assay; type: functional, organism-based
[31] = test system: Pseudomonas aeruginosa; assay: Synergistic antibacterial activity against wild type Pseudomonas aeruginosa PAO1 assessed as potentiation of minocycline-induced antibacterial effect incubated for 18 hrs by checkerboard assay; type: functional, organism-based
[32] = test system: Pseudomonas aeruginosa; assay: Synergistic antibacterial activity against wild type Pseudomonas aeruginosa PAO1 assessed as potentiation of aztreonam-induced antibacterial effect incubated for 18 hrs by checkerboard assay relative to aztreonam alone; type: functional
[33] = test system: Pseudomonas aeruginosa; assay: Synergistic antibacterial activity against wild type Pseudomonas aeruginosa PAO1 assessed as potentiation of moxifloxacin-induced antibacterial effect incubated for 18 hrs by checkerboard assay; type: functional, organism-based
[34] = test system: Pseudomonas aeruginosa; assay: Synergistic antibacterial activity against wild type Pseudomonas aeruginosa PAO1 assessed as potentiation of novobiocin-induced antibacterial effect incubated for 18 hrs by checkerboard assay; type: functional, organism-based
[35] = test system: Pseudomonas aeruginosa; assay: Synergistic antibacterial activity against wild type Pseudomonas aeruginosa PAO1 assessed as potentiation of piperacillin-induced antibacterial effect incubated for 18 hrs by checkerboard assay; type: functional, organism-based
[36] = test system: Pseudomonas aeruginosa; assay: Synergistic antibacterial activity against wild type Pseudomonas aeruginosa PAO1 assessed as potentiation of aztreonam-induced antibacterial effect incubated for 18 hrs by checkerboard assay; type: functional, organism-based
[37] = test system: Pseudomonas aeruginosa; assay: Synergistic antibacterial activity against wild type Pseudomonas aeruginosa PAO1 assessed as potentiation of vancomycin-induced antibacterial effect at <=7.1 uM incubated for 18 hrs by checkerboard assay; type: functional, organism-based
[38] = test system: Pseudomonas aeruginosa; assay: Synergistic antibacterial activity against wild type Pseudomonas aeruginosa PAO1 assessed as potentiation of minocycline-induced antibacterial effect incubated for 18 hrs by checkerboard assay relative to minocycline alone; type: functional
[39] = test system: Pseudomonas aeruginosa; assay: Synergistic antibacterial activity against wild type Pseudomonas aeruginosa PAO1 assessed as potentiation of rifampicin-induced antibacterial effect incubated for 18 hrs by checkerboard assay relative to rifampicin alone; type: functional
[40] = test system: Pseudomonas aeruginosa; assay: Synergistic antibacterial activity against wild type Pseudomonas aeruginosa PAO1 assessed as potentiation of levofloxacin-induced antibacterial effect incubated for 18 hrs by checkerboard assay relative to levofloxacin alone; type: functional
[41] = test system: Pseudomonas aeruginosa; assay: Antibacterial activity against wild type Pseudomonas aeruginosa PAO1 assessed as fractional inhibitory concentration index incubated for 18 hrs in presence of colistin by checkerboard assay; type: functional
[42] = test system: Pseudomonas aeruginosa; assay: Potentiation of novobiocin-induced antibacterial activity against wild type Pseudomonas aeruginosa PAO1 incubated for 18 hrs by CLSI protocol based assay; type: functional, organism-based
[43] = test system: Acinetobacter baumannii; assay: Antibacterial activity against wild type Acinetobacter baumannii ATCC 17978 by checkerboard assay; type: functional
[44] = test system: Acinetobacter baumannii; assay: Antibacterial activity against novobiocin and test compound-resistant Acinetobacter baumannii ATCC 17978 mutant generated from seven serial passages in presence of novobiocin by checkerboard assay; type: functional
[45] = test system: Acinetobacter baumannii; assay: Antibacterial activity against colistin-resistant Acinetobacter baumannii ATCC 17978 mutant generated from seven serial passages by checkerboard assay; type: functional
[46] = test system: Acinetobacter baumannii; assay: Antibacterial activity against novobiocin-resistant Acinetobacter baumannii ATCC 17978 mutant generated from seven serial passages by checkerboard assay; type: functional

## NC[C@H]1O[C@H](O[C@H]2[C@H](OCCCCCCn3cc(CCCCO[C@@H]4[C@@H](O[C@H]5O[C@H](CO)[C@@H](O)[C@H](N)[C@H]5O)[C@H](N)C[C@H](N)[C@H]4O[C@H]4O[C@H](CN)[C@@H](O)C[C@H]4N)nn3)[C@@H](O[C@H]3O[C@H](CO)[C@@H](O)[C@H](N)[C@H]3O)[C@H](N)C[C@@H]2N)[C@H](N)C[C@@H]1O.O=C(O)C(F)(F)F.O=C(O)C(F)(F)F.O=C(O)C(F)(F)F.O=C(O)C(F)(F)F.O=C(O)C(F)(F)F.O=C(O)C(F)(F)F.O=C(O)C(F)(F)F.O=C(O)C(F)(F)F.O=C(O)C(F)(F)F.O=C(O)C(F)(F)F
[1]
  Activity: Dose-dependent effect
[2]
  fold change (FC): 4 - 128
[3]
  fold change (FC): 4 - 128
[4]
  Activity: Non-Toxic
[5]
  fold change (FC): 4 - 128
[6]
  Activity: Dose-dependent effect
[7]
  fold change (FC): 4 - 128
[8]
  Activity: inactive
[9]
  fold change (FC): 4 - 128
[10]
  Activity: Non-Toxic
[11]
  Activity: inactive
[12]
  Activity: Dose-dependent effect
[13]
  Activity: Dose-dependent effect
[14]
  Activity: Non-Toxic
[15]
  fold change (FC): 4 - 128
[16]
  Activity: Dose-dependent effect
[17]
  fold change (FC): 4 - 128
[18]
  fold change (FC): 4 - 128
[19]
  fold change (FC): 4 - 128
[20]
  fractional inhibitory concentration index (FICI): >4
[21]
  Activity: Non-Toxic
[22]
  Activity: Dose-dependent effect
[23]
  Activity: Dose-dependent effect
[24]
  Activity: Dose-dependent effect
[25]
  Activity: Dose-dependent effect
[26]
  fold change (FC): 4 - 128
[27]
  fold change (FC): 4 - 128
[28]
  fold change (FC): 4 - 128
[29]
  Activity: Dose-dependent effect
[30]
  Activity: Dose-dependent effect
[31]
  Activity: Dose-dependent effect
[32]
  fold change (FC): 4 - 128
[33]
  Activity: Dose-dependent effect
[34]
  Activity: Dose-dependent effect
[35]
  Activity: Dose-dependent effect
[36]
  Activity: Dose-dependent effect
[37]
  Activity: inactive
[38]
  fold change (FC): 4 - 128
[39]
  fold change (FC): 4 - 128
[40]
  fold change (FC): 4 - 128
[41]
  fractional inhibitory concentration index (FICI): >4

## CC(C)(C)OC(=O)NC[C@H]1O[C@H](O[C@H]2[C@H](OCCCCc3cn(CCCCO[C@@H]4[C@@H](O[C@H]5O[C@H](CO)[C@@H](O)[C@H](NC(=O)OC(C)(C)C)[C@H]5O)[C@H](NC(=O)OC(C)(C)C)C[C@H](NC(=O)OC(C)(C)C)[C@H]4O[C@H]4O[C@H](CNC(=O)OC(C)(C)C)[C@@H](O)C[C@H]4NC(=O)OC(C)(C)C)nn3)[C@@H](O[C@H]3O[C@H](CO)[C@@H](O)[C@H](NC(=O)OC(C)(C)C)[C@H]3O)[C@H](NC(=O)OC(C)(C)C)C[C@@H]2NC(=O)OC(C)(C)C)[C@H](NC(=O)OC(C)(C)C)C[C@@H]1O
[42]
  Activity: inactive

## CO[C@H]1/C=C/O[C@@]2(C)Oc3c(C)c(O)c4c(O)c(c(/C=N/N5CCN(C)CC5)c(O)c4c3C2=O)NC(=O)/C(C)=C\C=C\[C@H](C)[C@H](O)[C@@H](C)[C@@H](O)[C@@H](C)[C@H](OC(C)=O)[C@@H]1C [RIFAMPIN]
[43]
  MIC: 2 µg/mL
[44]
  MIC: 2 µg/mL
[45]
  MIC: < 0.031 µg/mL
[46]
  MIC: 2 µg/mL

## [N-]=[N+]=NCCCCO[C@@H]1[C@@H](O[C@H]2O[C@H](CO)[C@@H](O)[C@H](N)[C@H]2O)[C@H](N)C[C@H](N)[C@H]1O[C@H]1O[C@H](CN)[C@@H](O)C[C@H]1N
[42]
  Activity: inactive
